Assays:
FGFR4 kinase (h) = FGFR4 kinase (h) (Homo sapiens, UniProt P22455); experiment: CEREP Kinase Selectivity Panel; format: biochemical; conditions: 10 μM lamellarin N
CSK (h) = CSK (h) (Homo sapiens, UniProt P41240); experiment: CEREP Kinase Selectivity Panel; format: biochemical; conditions: 10 μM lamellarin N
Akt1/PKB α (h) = Akt1/PKB α (h) (Homo sapiens, UniProt P31749); experiment: CEREP Kinase Selectivity Panel; format: biochemical; conditions: 10 μM lamellarin N
[1] = tested on: CDK1/cyclin B, CDK5/p25, GSK-3α/ß, PIM-1, DYRK1A, CK1; experiment: Kinase assay panel, structure/activity comparison; format: biochemical; conditions: transposition of substitutions at R3 and R4 of lamellarin D
Protocol: All compounds were run on our kinase assay panel comprising CDK1/cyclin B, CDK5/p25, GSK-3α/ß, PIM-1, DYRK1A, CK1.
Kinase activities were assayed in buffer A (10 mM MgCl2, 1 mM EGTA, 1 mM DTT, 25 mM Tris-HCl pH 7.5, 50 μg heparin/ml) or C (60 mM β-glycerophosphate, 15 mM p-nitrophenyl phosphate, 25 mM MOPS (pH 7.2), 5 mM EGTA, 15 mM MgCl2, 1 mM dithiothreitol, 1 mM sodium vanadate, 1 mM phenylphosphate, 0.1 % Nonidet P-40), at 30°C, at a final ATP concentration of 15 μM. Blank values were subtracted and activities calculated as pmoles of phosphate incorporated during a 30 min. incubation. The activities were expressed in % of the maximal activity, i.e. in the absence of inhibitors. Controls were performed with appropriate dilutions of dimethylsulfoxide. Unless otherwise stated, the P81 phosphocellulose assay was used.

p38α kinase (h) = p38α kinase (h) (Homo sapiens, UniProt Q16539); experiment: CEREP Kinase Selectivity Panel; format: biochemical; conditions: 10 μM lamellarin N
CDC2/CDK1 (h) (cycB) = CDC2/CDK1 (h) (cycB) (Homo sapiens, UniProt P06493); experiment: CEREP Kinase Selectivity Panel; format: biochemical; conditions: 10 μM lamellarin N
PDGFRβ kinase (h) = PDGFRβ kinase (h) (Homo sapiens, UniProt P09619); experiment: CEREP Kinase Selectivity Panel; format: biochemical; conditions: 10 μM lamellarin N
Src kinase (h) = Src kinase (h) (Homo sapiens, UniProt P12931); experiment: CEREP Kinase Selectivity Panel; format: biochemical; conditions: 10 μM lamellarin N
[2] = tested on: PARP, p53, p21^CIP1, Mcl-1 in SH-SY5Y cells; format: cell-based, human
Protocol: SH-SY5Y cells treated at time 0 with 1 μM lamellarin N. Cells were harvested at different time-points and protein extracted for SDS-PAGE followed by Western blot analysis using antibodies directed against PARP, p53, p21^CIP1, or Mcl-1, as described in the materials and methods section. β-actin was used as loading control. “Ctrl” denoted untreated sample after 10 hours.
At given time points and lamellarin doses, SH-SY5Y cells were harvested in phosphate buffered saline (PBS) with commercially available protease inhibitors (Roche, 11836145001). Cells were homogenized by sonication in homogenization buffer supplemented with 0.1% NP-40 and protease inhibitors. The homogenization buffer consist of: 25mM MOPS, 15mM EGTA, 15mM MgCl2, 1mM sodium orthovanadate, 1mM sodium fluoride, 60mM β-glycerophosphate, 2mM DTT, 15mM p-nitrophenylphosphate, and 1mM phenyl phosphate-di-sodium salt (all reagents supplied by Sigma). Sonication retrieved proteins. Cellular proteins were subjected to electrophoresis in SDS 10% polyacrylamide gels and transferred to a PVDF membrane (Invitrogen). Membranes were incubated with primary antibodies directed against p53 (Santa Cruz Biotech, sc-263) (1:1000), p21^CIP1 (Calbiochem, OP64) (1:1000) or poly (ADP-ribose) polymerase (PARP) (Santa Cruz Biotech, sc-7150) (1:500). Appropriate secondary antibodies conjugated to horseradish peroxidase (Biorad) were added to visualize the proteins using the ECL detection system.

FGFR2 kinase (h) = FGFR2 kinase (h) (Homo sapiens, UniProt P21802); experiment: CEREP Kinase Selectivity Panel; format: biochemical; conditions: 10 μM lamellarin N
Syk (h) = Syk (h) (Homo sapiens, UniProt P43405); experiment: CEREP Kinase Selectivity Panel; format: biochemical; conditions: 10 μM lamellarin N
PKCα (h) = PKCα (h) (Homo sapiens, UniProt P17252); experiment: CEREP Kinase Selectivity Panel; format: biochemical; conditions: 10 μM lamellarin N
TRKA (h) = TRKA (h) (Homo sapiens, UniProt P04629); experiment: CEREP Kinase Selectivity Panel; format: biochemical; conditions: 10 μM lamellarin N
RSK2 (h) = RSK2 (h) (Homo sapiens, UniProt P51812); experiment: CEREP Kinase Selectivity Panel; format: biochemical; conditions: 10 μM lamellarin N
GSK-3α/ß = experiment: GSK-3α/β kinase assay (GS-1 substrate); format: biochemical, porcine; conditions: 15 μM ATP; cell '− (x)' = no inhibitory activity detected, x = highest concentration tested
Description: GSK-3 α/β was purified from porcine brain by affinity chromatography on immobilized axin [39].

AMPKα = experiment: CEREP Kinase Selectivity Panel; format: biochemical; conditions: 10 μM lamellarin N
Lyn kinase (h) = Lyn kinase (h) (Homo sapiens, UniProt P07948); experiment: CEREP Kinase Selectivity Panel; format: biochemical; conditions: 10 μM lamellarin N
PKA (h) = PKA (h) (Homo sapiens, UniProt P17612); experiment: CEREP Kinase Selectivity Panel; format: biochemical; conditions: 10 μM lamellarin N
Lck kinase (h) = Lck kinase (h) (Homo sapiens, UniProt P06239); experiment: CEREP Kinase Selectivity Panel; format: biochemical; conditions: 10 μM lamellarin N
CHK1 (h) = CHK1 (h) (Homo sapiens, UniProt O14757); experiment: CEREP Kinase Selectivity Panel; format: biochemical; conditions: 10 μM lamellarin N
IRK (h) (InsR) = IRK (h) (InsR) (Homo sapiens, UniProt P06213); experiment: CEREP Kinase Selectivity Panel; format: biochemical; conditions: 10 μM lamellarin N
DYRK1A = DYRK1A (Rattus norvegicus, UniProt Q63470); experiment: DYRK1A kinase assay (myelin basic protein)
Protocol: Blank values were subtracted and activities calculated as pmoles of phosphate incorporated during a 30 min. incubation. The activities were expressed in % of the maximal activity, i.e. in the absence of inhibitors. Controls were performed with appropriate dilutions of dimethylsulfoxide. Unless otherwise stated, the P81 phosphocellulose assay was used.
DYRK1A was expressed as a GST fusion protein in E. coli (vector kindly provided by Dr. W. Becker, Institute for Pharmacology and Toxicology, Aachen, Germany) and affinity purified on glutathione-agarose. […] ATP in a final volume of 30 μl. After 30 min incubation at 30°C, 25 μl aliquots of supernatant were treated as described above.

PKCγ (h) = PKCγ (h) (Homo sapiens, UniProt P05129); experiment: CEREP Kinase Selectivity Panel; format: biochemical; conditions: 10 μM lamellarin N
CK1 = CK1 kinase assay (CKS peptide); format: biochemical, porcine; conditions: 15 μM ATP; cell '− (x)' = no inhibitory activity detected, x = highest concentration tested
Protocol: CK1 was purified from porcine brain by affinity chromatography on immobilized axin fragment. The mixture of native CK1 isoforms (essentially CK1δ and CK1ɛ) was assayed in three-fold diluted buffer C, using 25 μM CKS peptide, a CK1 selective substrate (RRKHAAIGpSAYSITA, synthesized by Millegen (Labège, France). Assays were performed for 30 min. at 30°C, as described for GSK-3.

Sequence of TRKA (h) (P04629 33-796): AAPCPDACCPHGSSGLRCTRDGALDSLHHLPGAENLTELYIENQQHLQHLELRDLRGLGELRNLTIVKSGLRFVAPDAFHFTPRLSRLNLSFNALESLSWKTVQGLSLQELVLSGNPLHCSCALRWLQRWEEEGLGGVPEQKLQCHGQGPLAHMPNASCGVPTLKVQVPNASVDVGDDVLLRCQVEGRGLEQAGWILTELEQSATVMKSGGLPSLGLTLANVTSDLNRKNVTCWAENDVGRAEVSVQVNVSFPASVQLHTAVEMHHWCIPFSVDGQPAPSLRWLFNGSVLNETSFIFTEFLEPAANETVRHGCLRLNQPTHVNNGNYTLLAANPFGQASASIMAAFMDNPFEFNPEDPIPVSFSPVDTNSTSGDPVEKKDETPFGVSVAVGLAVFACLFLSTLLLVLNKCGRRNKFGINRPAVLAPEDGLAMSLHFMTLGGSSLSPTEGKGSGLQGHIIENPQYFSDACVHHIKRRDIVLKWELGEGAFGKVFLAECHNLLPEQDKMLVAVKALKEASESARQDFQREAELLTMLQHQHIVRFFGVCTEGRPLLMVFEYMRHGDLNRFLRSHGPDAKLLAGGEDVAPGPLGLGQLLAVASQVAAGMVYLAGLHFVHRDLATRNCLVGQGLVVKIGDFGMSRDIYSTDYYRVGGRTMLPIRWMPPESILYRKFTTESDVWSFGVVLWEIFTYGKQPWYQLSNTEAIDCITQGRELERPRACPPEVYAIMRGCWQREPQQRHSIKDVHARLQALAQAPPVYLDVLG
Sequence of CDC2/CDK1 (h) (cycB) (P06493 whole entry): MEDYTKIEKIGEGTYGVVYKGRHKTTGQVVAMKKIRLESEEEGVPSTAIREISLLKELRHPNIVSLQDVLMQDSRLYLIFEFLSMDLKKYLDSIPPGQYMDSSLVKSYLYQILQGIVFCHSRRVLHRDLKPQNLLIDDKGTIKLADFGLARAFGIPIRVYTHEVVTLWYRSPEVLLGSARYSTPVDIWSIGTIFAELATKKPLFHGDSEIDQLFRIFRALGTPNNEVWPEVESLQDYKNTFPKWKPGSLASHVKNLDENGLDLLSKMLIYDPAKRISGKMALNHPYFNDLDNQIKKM
Sequence of CDC2/CDK1 (h) (cycB) (P14635 whole entry partner): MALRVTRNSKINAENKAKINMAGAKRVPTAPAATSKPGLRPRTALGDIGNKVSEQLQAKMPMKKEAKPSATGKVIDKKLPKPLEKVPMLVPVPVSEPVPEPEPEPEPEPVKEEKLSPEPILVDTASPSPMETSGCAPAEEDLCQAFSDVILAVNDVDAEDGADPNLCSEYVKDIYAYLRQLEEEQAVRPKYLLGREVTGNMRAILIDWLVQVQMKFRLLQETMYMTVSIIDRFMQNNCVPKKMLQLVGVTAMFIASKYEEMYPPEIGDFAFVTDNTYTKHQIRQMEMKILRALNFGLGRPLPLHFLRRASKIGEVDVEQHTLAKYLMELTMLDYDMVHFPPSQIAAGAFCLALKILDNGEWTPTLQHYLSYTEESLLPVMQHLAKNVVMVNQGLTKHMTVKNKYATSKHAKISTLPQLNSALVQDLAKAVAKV
Sequence of IRK (h) (InsR) (P06213 28-1382): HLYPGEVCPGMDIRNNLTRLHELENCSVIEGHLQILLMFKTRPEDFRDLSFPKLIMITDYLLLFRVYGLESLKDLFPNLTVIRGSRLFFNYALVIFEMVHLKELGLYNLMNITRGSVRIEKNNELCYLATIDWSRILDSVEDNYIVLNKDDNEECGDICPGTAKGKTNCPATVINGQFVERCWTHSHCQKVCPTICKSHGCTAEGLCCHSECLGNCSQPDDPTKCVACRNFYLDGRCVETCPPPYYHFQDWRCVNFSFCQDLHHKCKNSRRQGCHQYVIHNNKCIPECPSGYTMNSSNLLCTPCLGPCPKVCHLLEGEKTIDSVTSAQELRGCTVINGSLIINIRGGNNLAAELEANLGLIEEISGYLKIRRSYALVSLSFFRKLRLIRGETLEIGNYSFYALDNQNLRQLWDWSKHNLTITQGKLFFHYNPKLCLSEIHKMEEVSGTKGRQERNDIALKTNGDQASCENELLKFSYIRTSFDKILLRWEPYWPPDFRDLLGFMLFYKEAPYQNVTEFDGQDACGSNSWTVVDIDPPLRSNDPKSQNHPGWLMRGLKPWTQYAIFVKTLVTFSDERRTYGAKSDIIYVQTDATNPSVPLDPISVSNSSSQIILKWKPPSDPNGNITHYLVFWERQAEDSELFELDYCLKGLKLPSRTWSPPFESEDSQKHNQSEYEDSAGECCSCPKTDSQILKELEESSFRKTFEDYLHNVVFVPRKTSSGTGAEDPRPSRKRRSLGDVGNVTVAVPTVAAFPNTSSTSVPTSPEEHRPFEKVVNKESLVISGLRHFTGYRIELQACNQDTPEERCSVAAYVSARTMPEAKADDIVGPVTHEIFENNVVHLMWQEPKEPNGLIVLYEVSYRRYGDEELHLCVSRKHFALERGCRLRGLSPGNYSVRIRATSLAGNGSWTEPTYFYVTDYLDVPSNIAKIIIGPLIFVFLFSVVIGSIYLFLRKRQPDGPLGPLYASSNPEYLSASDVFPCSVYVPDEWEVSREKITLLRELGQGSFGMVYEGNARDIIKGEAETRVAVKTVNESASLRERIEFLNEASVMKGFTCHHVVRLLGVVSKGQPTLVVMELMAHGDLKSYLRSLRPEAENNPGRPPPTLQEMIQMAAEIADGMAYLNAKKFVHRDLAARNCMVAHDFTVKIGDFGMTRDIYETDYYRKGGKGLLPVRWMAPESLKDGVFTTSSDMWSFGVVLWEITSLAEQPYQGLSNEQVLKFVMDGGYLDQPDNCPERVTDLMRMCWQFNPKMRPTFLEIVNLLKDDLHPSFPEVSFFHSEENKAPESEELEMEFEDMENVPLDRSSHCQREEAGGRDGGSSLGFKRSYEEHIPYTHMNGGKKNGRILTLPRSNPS
Sequence of Lck kinase (h) (P06239 whole entry): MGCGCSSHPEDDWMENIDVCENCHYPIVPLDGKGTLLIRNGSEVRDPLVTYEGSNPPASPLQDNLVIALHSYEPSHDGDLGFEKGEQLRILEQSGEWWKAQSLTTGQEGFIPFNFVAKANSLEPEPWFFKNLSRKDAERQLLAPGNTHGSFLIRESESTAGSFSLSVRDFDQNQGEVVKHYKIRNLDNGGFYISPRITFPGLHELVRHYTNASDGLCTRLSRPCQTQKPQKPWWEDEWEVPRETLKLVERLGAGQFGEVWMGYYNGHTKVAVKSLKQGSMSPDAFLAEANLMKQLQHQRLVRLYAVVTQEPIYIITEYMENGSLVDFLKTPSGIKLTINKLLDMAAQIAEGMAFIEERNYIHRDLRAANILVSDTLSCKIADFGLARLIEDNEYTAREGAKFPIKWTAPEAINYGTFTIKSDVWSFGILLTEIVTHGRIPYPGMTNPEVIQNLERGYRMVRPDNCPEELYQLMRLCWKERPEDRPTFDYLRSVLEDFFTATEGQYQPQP
Sequence of FGFR4 kinase (h) (P22455 22-802): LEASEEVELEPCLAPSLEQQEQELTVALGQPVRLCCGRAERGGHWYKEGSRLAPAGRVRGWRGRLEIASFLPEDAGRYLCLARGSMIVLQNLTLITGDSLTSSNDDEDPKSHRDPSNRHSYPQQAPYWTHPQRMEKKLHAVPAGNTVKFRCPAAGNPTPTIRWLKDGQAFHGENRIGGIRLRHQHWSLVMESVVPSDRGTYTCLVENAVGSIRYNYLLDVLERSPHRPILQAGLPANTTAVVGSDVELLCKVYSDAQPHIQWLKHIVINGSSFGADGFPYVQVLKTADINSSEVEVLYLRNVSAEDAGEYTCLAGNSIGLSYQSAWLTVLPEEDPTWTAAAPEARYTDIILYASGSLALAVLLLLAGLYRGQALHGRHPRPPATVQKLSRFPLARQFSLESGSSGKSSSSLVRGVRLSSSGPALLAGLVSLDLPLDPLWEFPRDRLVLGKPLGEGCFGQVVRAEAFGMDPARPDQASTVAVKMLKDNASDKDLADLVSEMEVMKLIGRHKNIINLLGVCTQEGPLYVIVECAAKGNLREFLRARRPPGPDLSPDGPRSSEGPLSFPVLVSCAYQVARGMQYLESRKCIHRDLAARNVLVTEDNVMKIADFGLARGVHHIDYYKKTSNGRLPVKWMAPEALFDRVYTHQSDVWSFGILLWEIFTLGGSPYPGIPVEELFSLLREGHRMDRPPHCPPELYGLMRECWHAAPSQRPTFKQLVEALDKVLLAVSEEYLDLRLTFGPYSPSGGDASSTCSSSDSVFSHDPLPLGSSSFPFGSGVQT

## COc1ccc(-c2c3c4cc(OC)c(O)cc4oc(=O)c3n3ccc4cc(O)c(OC)cc4c23)cc1O [Compound 6, lamellarin N]
FGFR4 kinase (h)
  Activity (% of control): 62.5 % of control
CSK (h)
  Activity (% of control): 47.4 % of control
Akt1/PKB α (h)
  Activity (% of control): 104.6 % of control
[1]
  enhancement of kinase inhibitory activity relative to lamellarin D: 10 fold
p38α kinase (h)
  Activity (% of control): 97.4 % of control
CDC2/CDK1 (h) (cycB)
  Activity (% of control): 20.4 % of control
PDGFRβ kinase (h)
  Activity (% of control): 1.8 % of control
Src kinase (h)
  Activity (% of control): 56.2 % of control
[2]
  effect on survival factor Mcl-1 expression: not down-regulated
  lowest concentration inducing PARP cleavage and p53 and p21 expression: 0.1 µM
  time at which induction of PARP cleavage and p53 and p21 expression already takes place: ≤ 6 h
FGFR2 kinase (h)
  Activity (% of control): 19.8 % of control
Syk (h)
  Activity (% of control): 97.1 % of control
PKCα (h)
  Activity (% of control): 91.7 % of control
TRKA (h)
  Activity (% of control): 0.8 % of control
RSK2 (h)
  Activity (% of control): 44.5 % of control
GSK-3α/ß
  IC50: 5 nM
AMPKα
  Activity (% of control): 42.4 % of control
Lyn kinase (h)
  Activity (% of control): 7.2 % of control
PKA (h)
  Activity (% of control): 80.0 % of control
Lck kinase (h)
  Activity (% of control): 7.1 % of control
CHK1 (h)
  Activity (% of control): 93.3 % of control
IRK (h) (InsR)
  Activity (% of control): 46.7 % of control
DYRK1A
  IC50: 35 nM
PKCγ (h)
  Activity (% of control): 94.1 % of control
CK1
  IC50: > 10000 nM
